Test results from paper PMC4823954, “From fighting depression to conquering tumors: a novel tricyclic thiazepine compound as a tubulin polymerization inhibitor” (Cell Death & Disease, 2016).

How the values were obtained:
Assay in all cases: KINOMEscan
Format in all cases: binding
Settings in all cases: read-out: % Ctrl
[1] = biological target: T1, PRKD3 (Homo sapiens, UniProt O94806)
T1 construct: purchased DiscoveRx KINOMEscan
Method: (§1) The binding assay for 442 non-mutant kinases was performed using KINOMEscan (DiscoveRx Corporation, Fremont, CA, USA) as reported previously.[58], [59] TBPT was screened at concentrations of 5 and 10 μM to identify the affected kinases. KINOMEscan is based on a competition reaction that quantitatively measures the ability of a test compound to compete with an active site-directed ligand for binding to the kinase active site. […] After the assay plates were incubated with shaking for 1 h, the liganded beads were washed with washing buffer (1 × PBS and 0.05% Tween 20). Then, the beads were re-suspended in elution buffer (1 × PBS, 0.05% Tween 20, and 0.5 μM ligand) and incubated with shaking for 30 min. The kinase concentration in the eluates was measured via qPCR. The results are represented as ‘%Ctrl', which was calculated using the following formula: (test compound signal–positive control signal)/(DMSO signal–positive control signal) × 100%. A lower % Ctrl indicates stronger binding to the kinase active site.

[2] = biological target: T2, CSNK1A1 (Homo sapiens, UniProt P48729)
T2 construct: purchased DiscoveRx KINOMEscan
Method: as §1

[3] = biological target: T3, FLT3(R834Q) (Homo sapiens, UniProt P36888, R834Q)
T3 construct: purchased DiscoveRx KINOMEscan
Method: as §1

[4] = biological target: T4, PIK4CB (Homo sapiens, UniProt Q9UBF8)
T4 construct: purchased DiscoveRx KINOMEscan
Method: as §1

[5] = biological target: T5, RSK4(Kin.Dom.2-C-terminal) (Homo sapiens, UniProt Q9UK32)
T5 construct: RSK4(Kin.Dom.2-C-terminal); purchased DiscoveRx KINOMEscan
Method: as §1

[6] = biological target: T6, BRAF (Homo sapiens, UniProt P15056)
T6 construct: purchased DiscoveRx KINOMEscan
Method: as §1

[7] = biological target: T7, JNK3 (Homo sapiens, UniProt P53779)
T7 construct: purchased DiscoveRx KINOMEscan
Method: as §1

[8] = biological target: T8, YANK1 (Homo sapiens, UniProt Q8WU08)
T8 construct: purchased DiscoveRx KINOMEscan
Method: as §1

[9] = biological target: T9, ZAK (Homo sapiens, UniProt Q9NYL2)
T9 construct: purchased DiscoveRx KINOMEscan
Method: as §1

[10] = biological target: T10, PIM2 (Homo sapiens, UniProt Q9P1W9)
T10 construct: purchased DiscoveRx KINOMEscan
Method: as §1

[11] = biological target: T11, CDK2 (Homo sapiens, UniProt P24941)
T11 construct: purchased DiscoveRx KINOMEscan
Method: as §1

[12] = biological target: T12, SRC (Homo sapiens, UniProt P12931)
T12 construct: purchased DiscoveRx KINOMEscan
Method: as §1

[13] = biological target: T13, LIMK1 (Homo sapiens, UniProt P53667)
T13 construct: purchased DiscoveRx KINOMEscan
Method: as §1

[14] = biological target: T14, ROCK1 (Homo sapiens, UniProt Q13464)
T14 construct: purchased DiscoveRx KINOMEscan
Method: as §1

[15] = biological target: T15, MEK2 (Homo sapiens, UniProt P36507)
T15 construct: purchased DiscoveRx KINOMEscan
Method: as §1

[16] = biological target: T16, ZAP70 (Homo sapiens, UniProt P43403)
T16 construct: purchased DiscoveRx KINOMEscan
Method: as §1

[17] = biological target: T17, LKB1 (Homo sapiens, UniProt Q15831)
T17 construct: purchased DiscoveRx KINOMEscan
Method: as §1

[18] = biological target: T18, RIPK2 (Homo sapiens, UniProt O43353)
T18 construct: purchased DiscoveRx KINOMEscan
Method: as §1

[19] = biological target: T19, TEC (Homo sapiens, UniProt P42680)
T19 construct: purchased DiscoveRx KINOMEscan
Method: as §1

[20] = biological target: T20, SBK1 (Homo sapiens, UniProt Q52WX2)
T20 construct: purchased DiscoveRx KINOMEscan
Method: as §1

[21] = biological target: T21, YANK2 (Homo sapiens, UniProt Q9NY57)
T21 construct: purchased DiscoveRx KINOMEscan
Method: as §1

[22] = biological target: T22, CAMK2B (Homo sapiens, UniProt Q13554)
T22 construct: purchased DiscoveRx KINOMEscan
Method: as §1

[23] = biological target: T23, ACVR2B (Homo sapiens, UniProt Q13705)
T23 construct: purchased DiscoveRx KINOMEscan
Method: as §1

[24] = biological target: T24, BRAF(V600E) (Homo sapiens, UniProt P15056, V600E)
T24 construct: purchased DiscoveRx KINOMEscan
Method: as §1

[25] = biological target: T25, AKT1 (Homo sapiens, UniProt P31749)
T25 construct: purchased DiscoveRx KINOMEscan
Method: as §1

[26] = biological target: T26, ERK8 (Homo sapiens, UniProt Q8TD08)
T26 construct: purchased DiscoveRx KINOMEscan
Method: as §1

[27] = biological target: T27, CSNK1G3 (Homo sapiens, UniProt Q9Y6M4)
T27 construct: purchased DiscoveRx KINOMEscan
Method: as §1

[28] = biological target: T28, MAP3K4 (Homo sapiens, UniProt Q9Y6R4)
T28 construct: purchased DiscoveRx KINOMEscan
Method: as §1

[29] = biological target: T29, CHEK2 (Homo sapiens, UniProt O96017)
T29 construct: purchased DiscoveRx KINOMEscan
Method: as §1

[30] = biological target: T30, KIT(D816V) (Homo sapiens, UniProt P10721, D816V)
T30 construct: purchased DiscoveRx KINOMEscan
Method: as §1

T17 sequence (Q15831 whole entry): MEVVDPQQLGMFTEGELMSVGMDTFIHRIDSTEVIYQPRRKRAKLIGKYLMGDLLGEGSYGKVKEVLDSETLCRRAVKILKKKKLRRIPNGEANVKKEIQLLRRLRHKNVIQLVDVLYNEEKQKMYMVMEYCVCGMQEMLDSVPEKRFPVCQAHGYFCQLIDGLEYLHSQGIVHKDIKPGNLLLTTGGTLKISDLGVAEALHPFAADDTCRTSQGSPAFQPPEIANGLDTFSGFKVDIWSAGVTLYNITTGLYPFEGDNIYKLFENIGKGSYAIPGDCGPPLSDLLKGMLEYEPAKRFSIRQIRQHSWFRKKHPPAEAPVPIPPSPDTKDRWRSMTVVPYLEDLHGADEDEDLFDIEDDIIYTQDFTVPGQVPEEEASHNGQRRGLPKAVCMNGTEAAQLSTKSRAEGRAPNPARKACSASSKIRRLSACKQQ
T24 sequence (P15056 whole entry V600E): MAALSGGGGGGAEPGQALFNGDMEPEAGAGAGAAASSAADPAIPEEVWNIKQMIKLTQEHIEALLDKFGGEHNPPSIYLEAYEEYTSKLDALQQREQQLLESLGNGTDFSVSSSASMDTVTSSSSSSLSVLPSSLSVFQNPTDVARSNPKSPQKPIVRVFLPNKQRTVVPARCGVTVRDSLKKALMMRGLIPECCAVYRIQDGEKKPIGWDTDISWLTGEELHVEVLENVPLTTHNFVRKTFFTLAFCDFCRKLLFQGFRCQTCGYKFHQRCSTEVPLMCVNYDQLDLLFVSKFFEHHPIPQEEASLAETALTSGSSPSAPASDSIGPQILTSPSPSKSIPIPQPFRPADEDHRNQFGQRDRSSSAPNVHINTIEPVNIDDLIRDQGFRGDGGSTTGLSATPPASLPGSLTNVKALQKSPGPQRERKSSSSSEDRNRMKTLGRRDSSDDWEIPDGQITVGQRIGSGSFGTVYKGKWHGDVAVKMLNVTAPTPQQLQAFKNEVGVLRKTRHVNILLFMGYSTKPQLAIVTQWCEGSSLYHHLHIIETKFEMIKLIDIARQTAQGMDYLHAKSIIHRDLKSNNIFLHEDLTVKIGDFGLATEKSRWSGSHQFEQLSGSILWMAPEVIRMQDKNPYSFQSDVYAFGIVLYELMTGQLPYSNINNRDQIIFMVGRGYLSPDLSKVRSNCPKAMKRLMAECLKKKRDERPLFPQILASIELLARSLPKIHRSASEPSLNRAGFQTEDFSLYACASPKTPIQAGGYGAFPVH
T14 sequence (Q13464 whole entry): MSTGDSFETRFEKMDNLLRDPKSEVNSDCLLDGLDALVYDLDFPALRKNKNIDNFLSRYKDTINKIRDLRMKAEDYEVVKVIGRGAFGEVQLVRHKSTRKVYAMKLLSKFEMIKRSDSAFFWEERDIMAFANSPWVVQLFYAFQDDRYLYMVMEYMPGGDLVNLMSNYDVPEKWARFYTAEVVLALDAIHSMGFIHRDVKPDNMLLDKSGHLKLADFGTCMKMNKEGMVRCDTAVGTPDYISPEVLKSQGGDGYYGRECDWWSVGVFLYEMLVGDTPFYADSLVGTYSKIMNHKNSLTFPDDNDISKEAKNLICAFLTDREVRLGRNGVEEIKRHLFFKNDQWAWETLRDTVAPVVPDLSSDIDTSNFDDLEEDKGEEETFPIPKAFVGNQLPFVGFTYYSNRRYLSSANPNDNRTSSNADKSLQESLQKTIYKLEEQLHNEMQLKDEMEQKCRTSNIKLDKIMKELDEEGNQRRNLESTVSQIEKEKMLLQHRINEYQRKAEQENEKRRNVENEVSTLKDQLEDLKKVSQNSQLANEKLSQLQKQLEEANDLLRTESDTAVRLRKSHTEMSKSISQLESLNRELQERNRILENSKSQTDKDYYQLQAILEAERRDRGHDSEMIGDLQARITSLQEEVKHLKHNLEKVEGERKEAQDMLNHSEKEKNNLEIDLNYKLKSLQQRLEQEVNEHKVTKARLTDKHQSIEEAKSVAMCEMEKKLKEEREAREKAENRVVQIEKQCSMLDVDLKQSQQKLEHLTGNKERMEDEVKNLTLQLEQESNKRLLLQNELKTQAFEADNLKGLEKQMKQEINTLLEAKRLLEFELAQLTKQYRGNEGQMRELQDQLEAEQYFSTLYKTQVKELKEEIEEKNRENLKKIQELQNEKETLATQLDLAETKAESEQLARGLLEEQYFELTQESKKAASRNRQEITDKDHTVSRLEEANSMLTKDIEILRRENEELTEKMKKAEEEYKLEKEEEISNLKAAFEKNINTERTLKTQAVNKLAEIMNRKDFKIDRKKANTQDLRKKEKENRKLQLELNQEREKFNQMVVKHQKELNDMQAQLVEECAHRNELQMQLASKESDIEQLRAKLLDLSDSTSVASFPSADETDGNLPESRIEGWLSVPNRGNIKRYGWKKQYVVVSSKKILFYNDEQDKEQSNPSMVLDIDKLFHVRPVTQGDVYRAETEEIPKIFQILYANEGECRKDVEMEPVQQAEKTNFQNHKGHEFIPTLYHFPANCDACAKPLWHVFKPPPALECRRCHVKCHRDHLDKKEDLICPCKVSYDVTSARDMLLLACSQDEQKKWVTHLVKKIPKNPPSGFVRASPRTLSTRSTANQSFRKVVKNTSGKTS
T20 sequence (Q52WX2 whole entry): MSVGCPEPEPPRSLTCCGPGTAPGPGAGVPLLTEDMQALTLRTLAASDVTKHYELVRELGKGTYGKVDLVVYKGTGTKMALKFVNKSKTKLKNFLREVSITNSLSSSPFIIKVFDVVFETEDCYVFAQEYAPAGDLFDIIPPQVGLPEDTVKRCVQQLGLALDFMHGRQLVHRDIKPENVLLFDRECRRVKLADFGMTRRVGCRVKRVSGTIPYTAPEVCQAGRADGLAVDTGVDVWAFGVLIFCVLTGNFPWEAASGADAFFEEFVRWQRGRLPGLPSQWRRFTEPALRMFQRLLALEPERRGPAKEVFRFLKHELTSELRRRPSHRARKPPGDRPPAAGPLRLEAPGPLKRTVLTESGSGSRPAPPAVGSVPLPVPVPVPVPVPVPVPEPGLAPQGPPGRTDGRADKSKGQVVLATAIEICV
T30 sequence (P10721 26-976 D816V): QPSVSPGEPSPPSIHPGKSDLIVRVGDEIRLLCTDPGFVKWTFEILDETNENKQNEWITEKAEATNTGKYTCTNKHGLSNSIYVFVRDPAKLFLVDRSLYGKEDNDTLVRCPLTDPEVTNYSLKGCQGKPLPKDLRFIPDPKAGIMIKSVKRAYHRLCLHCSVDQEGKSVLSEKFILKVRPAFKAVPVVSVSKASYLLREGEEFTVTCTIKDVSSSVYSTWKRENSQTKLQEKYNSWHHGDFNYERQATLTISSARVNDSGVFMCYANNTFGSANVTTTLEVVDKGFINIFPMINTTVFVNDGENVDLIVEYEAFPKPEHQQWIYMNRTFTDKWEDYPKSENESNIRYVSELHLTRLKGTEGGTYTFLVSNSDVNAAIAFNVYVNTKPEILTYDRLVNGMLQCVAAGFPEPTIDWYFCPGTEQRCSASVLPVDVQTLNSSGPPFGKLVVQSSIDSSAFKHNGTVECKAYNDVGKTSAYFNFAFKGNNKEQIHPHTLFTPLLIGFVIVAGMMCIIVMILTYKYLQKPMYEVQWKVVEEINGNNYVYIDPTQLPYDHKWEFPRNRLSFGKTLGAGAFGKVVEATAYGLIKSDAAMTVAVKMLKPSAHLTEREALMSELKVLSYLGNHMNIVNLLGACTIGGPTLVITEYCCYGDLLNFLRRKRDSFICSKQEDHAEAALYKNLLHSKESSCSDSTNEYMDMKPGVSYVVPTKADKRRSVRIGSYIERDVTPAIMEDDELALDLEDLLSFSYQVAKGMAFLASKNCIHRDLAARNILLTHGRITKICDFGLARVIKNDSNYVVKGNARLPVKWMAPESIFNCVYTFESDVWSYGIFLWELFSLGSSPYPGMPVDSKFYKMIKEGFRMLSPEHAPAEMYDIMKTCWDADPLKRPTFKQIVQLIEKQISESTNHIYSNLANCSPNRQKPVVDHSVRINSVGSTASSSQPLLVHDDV
T6 sequence (P15056 whole entry): as the sequence (P15056 whole entry V600E) above, with E600V counted along it
T13 sequence (P53667 whole entry): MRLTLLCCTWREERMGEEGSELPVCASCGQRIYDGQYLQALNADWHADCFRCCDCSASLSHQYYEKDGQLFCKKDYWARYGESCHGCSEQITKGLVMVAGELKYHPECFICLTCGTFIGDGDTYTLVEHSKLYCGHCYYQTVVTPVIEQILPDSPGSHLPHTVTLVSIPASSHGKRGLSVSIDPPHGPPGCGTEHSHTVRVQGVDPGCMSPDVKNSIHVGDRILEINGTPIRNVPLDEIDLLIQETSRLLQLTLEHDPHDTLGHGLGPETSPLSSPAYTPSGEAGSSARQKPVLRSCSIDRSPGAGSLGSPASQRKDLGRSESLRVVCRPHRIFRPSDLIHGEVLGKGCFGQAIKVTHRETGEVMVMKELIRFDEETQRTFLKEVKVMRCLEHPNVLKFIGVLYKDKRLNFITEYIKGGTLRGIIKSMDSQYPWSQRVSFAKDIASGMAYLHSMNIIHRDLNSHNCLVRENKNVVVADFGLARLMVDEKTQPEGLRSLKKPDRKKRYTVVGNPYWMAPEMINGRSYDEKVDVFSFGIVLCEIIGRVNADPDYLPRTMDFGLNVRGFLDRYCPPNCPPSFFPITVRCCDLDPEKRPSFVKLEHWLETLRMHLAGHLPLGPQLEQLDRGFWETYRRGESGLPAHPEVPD
T10 sequence (Q9P1W9 whole entry): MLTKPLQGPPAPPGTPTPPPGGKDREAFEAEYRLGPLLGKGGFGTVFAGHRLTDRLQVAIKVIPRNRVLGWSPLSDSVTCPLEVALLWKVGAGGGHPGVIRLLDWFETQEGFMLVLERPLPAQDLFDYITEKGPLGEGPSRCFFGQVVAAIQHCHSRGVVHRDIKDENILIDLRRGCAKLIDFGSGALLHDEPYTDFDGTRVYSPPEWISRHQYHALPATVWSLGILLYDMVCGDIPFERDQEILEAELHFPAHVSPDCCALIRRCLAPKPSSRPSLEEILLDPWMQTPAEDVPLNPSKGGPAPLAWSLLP

Cc1ccc(C2=Nc3cccnc3S(=O)(=O)c3ccccc32)cc1 [TBPT, 6-(p-tolyl)benzo[f] pyrido[2,3-b][1,4] thiazepine 11,11-dioxide]
remaining binding at 5 µM ([1]; 5 μM): 100% | remaining binding at 10 µM ([1]; 10 μM): 78% | remaining binding at 5 µM ([2]; 5 μM): 100% | remaining binding at 10 µM ([2]; 10 μM): 86% | remaining binding at 5 µM ([3]; 5 μM): 89% | remaining binding at 10 µM ([3]; 10 μM): 100% | remaining binding at 5 µM ([4]; 5 μM): 100% | remaining binding at 10 µM ([4]; 10 μM): 93% | remaining binding at 5 µM ([5]; 5 μM): 94% | remaining binding at 10 µM ([5]; 10 μM): 57% | remaining binding at 5 µM ([6]; 5 μM): 100% | remaining binding at 10 µM ([6]; 10 μM): 100% | remaining binding at 5 µM ([7]; 5 μM): 84% | remaining binding at 10 µM ([7]; 10 μM): 95% | remaining binding at 5 µM ([8]; 5 μM): 96% | remaining binding at 10 µM ([8]; 10 μM): 100% | remaining binding at 5 µM ([9]; 5 μM): 94% | remaining binding at 10 µM ([9]; 10 μM): 83% | remaining binding at 5 µM ([10]; 5 μM): 100% | remaining binding at 10 µM ([10]; 10 μM): 100% | remaining binding at 5 µM ([11]; 5 μM): 98% | remaining binding at 10 µM ([11]; 10 μM): 93% | remaining binding at 5 µM ([12]; 5 μM): 87% | remaining binding at 10 µM ([12]; 10 μM): 100% | remaining binding at 5 µM ([13]; 5 μM): 100% | remaining binding at 10 µM ([13]; 10 μM): 100% | remaining binding at 5 µM ([14]; 5 μM): 84% | remaining binding at 10 µM ([14]; 10 μM): 100% | remaining binding at 5 µM ([15]; 5 μM): 92% | remaining binding at 10 µM ([15]; 10 μM): 100% | remaining binding at 5 µM ([16]; 5 μM): 100% | remaining binding at 10 µM ([16]; 10 μM): 99% | remaining binding at 5 µM ([17]; 5 μM): 100% | remaining binding at 10 µM ([17]; 10 μM): 89% | remaining binding at 5 µM ([18]; 5 μM): 92% | remaining binding at 10 µM ([18]; 10 μM): 97% | remaining binding at 5 µM ([19]; 5 μM): 90% | remaining binding at 10 µM ([19]; 10 μM): 99% | remaining binding at 5 µM ([20]; 5 μM): 100% | remaining binding at 10 µM ([20]; 10 μM): 85% | remaining binding at 5 µM ([21]; 5 μM): 99% | remaining binding at 10 µM ([21]; 10 μM): 100% | remaining binding at 5 µM ([22]; 5 μM): 100% | remaining binding at 10 µM ([22]; 10 μM): 100% | remaining binding at 5 µM ([23]; 5 μM): 87% | remaining binding at 10 µM ([23]; 10 μM): 82% | remaining binding at 5 µM ([24]; 5 μM): 94% | remaining binding at 10 µM ([24]; 10 μM): 94% | remaining binding at 5 µM ([25]; 5 μM): 84% | remaining binding at 10 µM ([25]; 10 μM): 100% | remaining binding at 5 µM ([26]; 5 μM): 94% | remaining binding at 10 µM ([26]; 10 μM): 100% | remaining binding at 5 µM ([27]; 5 μM): 100% | remaining binding at 10 µM ([27]; 10 μM): 98% | remaining binding at 5 µM ([28]; 5 μM): 99% | remaining binding at 10 µM ([28]; 10 μM): 96% | remaining binding at 5 µM ([29]; 5 μM): 100% | remaining binding at 10 µM ([29]; 10 μM): 100% | remaining binding at 5 µM ([30]; 5 μM): 62% | remaining binding at 10 µM ([30]; 10 μM): 99%
